Data reported in patent US20160228446A1, “Combination Drug Therapy” (GLAXOSMITHKLINE LLC, priority 2013, published 2016).

What was measured:
[1] = tested on: prostate cancer xenograft models; settings: in vivo; cited from earlier work
androgen receptor = androgen receptor (Homo sapiens, UniProt P10275); settings: cited from earlier work
LNCaP cells = assay: Luminescent caspase 3/7 assay; assay type: cell-based; settings: single agent 5 uM, five days, normalized to ATP signal
Procedure: Caspase 3/7 activity was normalized and plotted as a percentage of the untreated control samples. Data for 2 independent experiments (N=1, N=2) is shown and represents mean±std dev from duplicate treatments. Tumor cells were seeded in 96-well white tissue culture plates in 100 μL growth media (media with 10% FBS) or CSS media (media with 10% charcoal stripped fetal bovine serum). LNCaP cells were seeded at a density of 1,000 cells per well. Approximately 24 hr after plating, duplicate or triplicate plates of cells were treated with indicated compounds for both luminescent caspase-3/7 and CTG readings. At the end of the 5 days of incubations, half of the plates were lysed and caspase-3/7 activity was measured using the Caspase-Glo® 3/7 Assay (Promega) according to the manufacturer's protocol. Caspase-Glo reagent was added to each plate, incubated for at least 45 minutes, and luminescent signal was read on the EnVision Multilabel Plate Reader with a 0.1 sec integration time. The remaining plates were lysed and ATP levels were measured using the CTG assay. The caspase-3/7 signal was normalized to the ATP signal. The normalized values were expressed as a percentage of the control wells.

phospho-AKT = assay: Immunoblot assay, AKT phosphorylation; assay type: cell-based; settings: LNCaP cells, Compound B 3 or 10 uM, 0.1 nM R1881, six hours
Procedure: LNCaP cells were treated with Compound B (3 or 10 uM) alone or in presence of compound A (3 uM), all in presence of 0.1 nM synthetic androgen (R1881).
LNCaP cells were grown in RPMI 1640 culture medium supplemented with 10% charcoal-stripped fetal bovine serum for 48 hours in 6-well tissue culture plates at a density of 500,000 cells per well. Cells were treated with the indicated compounds for six hours, washed with PBS, and whole cell lysates were prepared in RIPA buffer (Teknova, Hollister, Calif.). Cell lysates were clarified by centrifugation at 20,000 relative centrifugal force, 4° C., and protein was quantified using the BCA Protein Assay Kit (Pierce, Rockford, Ill.). Equal amounts of protein lysates were separated by SDS-PAGE using a 4-12% Bis-Tris polyacrylamide gel (Life Technologies) and transferred to a nitrocellulose membrane and incubated with antibodies against total and phospho-AKT, phospho-PRAS40, total and phospho-S6, androgen receptor, and FKBP5. Following incubation with primary antibody, blots were washed and incubated with IRDye-800 anti-mouse or IRDye-680 anti-rabbit antibodies for 1 h. Following thorough washing, blots were analyzed using an infrared imaging system (LI-COR).

phospho-S6 = assay: Immunoblot assay, phospho-S6; assay type: cell-based; settings: LNCaP cells, Compound B 3 or 10 uM alone or with compound A 3 uM, 0.1 nM R1881, six hours
[2] = tested on: LNCaP prostate cancer cells; assay: Cell proliferation assay (CellTiter-Glo, total cellular ATP); assay type: cell-based; settings: single agent; charcoal-stripped serum, 0.1 nM R1881, 7 days; percentage of DMSO-treated control
Procedure: Cells were grown in charcoal-stripped serum to deplete potential androgen from serum. Under these conditions, cell growth is dependent on exogenous androgen (e.g., R1881).
Androgen-dependent prostate cancer cell line, LNCaP, were grown in RPMI 1640 culture medium supplemented with 10% charcoal-stripped fetal bovine serum for 24 hours in 96-well tissue culture plates at a density of 1,000 cells per well. Cells were treated with various concentrations of compounds A or B alone and in combination in the presence of synthetic androgen (R1881, Sigma-Aldrich, St. Louis, Mo.). After 7 days, total cellular ATP was measured using the CellTiter-Glo Luminescent Cell Viability Assay (Promega, Madison, Wis.) on an EnVision plate reader. Background counts from wells containing no cells were subtracted and the data is presented as a percentage of the DMSO-treated control cells.

Chain of androgen receptor (P10275 whole entry, species assumed): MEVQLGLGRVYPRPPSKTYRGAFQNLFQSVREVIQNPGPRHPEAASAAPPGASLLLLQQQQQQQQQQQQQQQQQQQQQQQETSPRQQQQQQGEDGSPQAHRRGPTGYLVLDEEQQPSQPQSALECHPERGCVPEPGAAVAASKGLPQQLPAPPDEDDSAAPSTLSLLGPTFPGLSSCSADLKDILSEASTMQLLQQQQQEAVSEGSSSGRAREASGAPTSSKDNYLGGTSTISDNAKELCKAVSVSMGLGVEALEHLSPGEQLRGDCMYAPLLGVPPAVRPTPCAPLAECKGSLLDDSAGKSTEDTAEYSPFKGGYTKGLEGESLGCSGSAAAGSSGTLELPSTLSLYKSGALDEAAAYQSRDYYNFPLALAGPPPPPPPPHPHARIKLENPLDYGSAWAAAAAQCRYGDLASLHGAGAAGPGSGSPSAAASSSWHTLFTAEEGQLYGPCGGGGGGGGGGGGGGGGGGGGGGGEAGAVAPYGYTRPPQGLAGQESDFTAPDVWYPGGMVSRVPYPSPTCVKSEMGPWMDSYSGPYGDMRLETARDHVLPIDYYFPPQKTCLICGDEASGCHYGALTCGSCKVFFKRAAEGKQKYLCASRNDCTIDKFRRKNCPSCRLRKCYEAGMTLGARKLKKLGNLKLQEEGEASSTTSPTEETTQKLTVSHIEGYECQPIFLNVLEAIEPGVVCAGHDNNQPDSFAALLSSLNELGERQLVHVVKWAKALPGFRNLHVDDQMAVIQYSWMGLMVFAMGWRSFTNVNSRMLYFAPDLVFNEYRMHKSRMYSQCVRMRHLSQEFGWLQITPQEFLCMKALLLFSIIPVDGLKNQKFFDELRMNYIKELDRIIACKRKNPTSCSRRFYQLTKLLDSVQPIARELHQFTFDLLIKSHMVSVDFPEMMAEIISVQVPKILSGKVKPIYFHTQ

| Structure (SMILES) | anti-proliferative activity in prostate cancer xenograft models [1] | affinity for the androgen receptor (androgen receptor) | induction of caspase 3/7 activity (LNCaP cells) | AKT phosphorylation (phospho-AKT) | phospho-S6 (phospho-S6) | LNCaP cell growth [2] |
| --- | --- | --- | --- | --- | --- | --- |
| CC(O)c1cc(C(=O)N[C@@H](C)Cn2ccc(-c3ccc(C#N)c(Cl)c3)n2)[nH]n1 (some centres unmarked) [ODM-201] | anti-proliferative activity | high affinity |  |  |  |  |
| Cc1c(Cn2c(C)nc3c(C(=O)O)cc(N4CCOCC4)cc32)cccc1C(F)(F)F [Compound B, 2-methyl-1-{[2-methyl-3-(trifluoromethyl)phenyl]methyl}-6-(4-morpholinyl)-1H-benzimidazole-4-carboxylic acid] |  |  | minimal induction | inhibited AKT phosphorylation | inhibition of phospho-S6 | inhibited the growth |
| CNC(=O)c1ccc(N2C(=S)N(c3ccc(C#N)c(C(F)(F)F)c3)C(=O)C2(C)C)cc1F [Compound A, 4-(3-(4-Cyano-3-(trifluoromethyl)phenyl)-5,5-dimethyl-4-oxo-2-thioxoimidazolidin-1-yl)-2-fluoro-N-methylbenzamide] |  |  | minimal induction |  |  | inhibited |
